Laboratory results reported in patent US7709223B2, “Method for detecting bacteria with chromogenic substrates for β-D-ribofuranosidase” (priority 2001, dated 2010).
Structures can show the parent of a compound that is named as a salt.

Tests used:
C. diphtheriae = assay: Hydrolysis on Columbia agar with ferric ammonium citrate; type: cell-based, Corynebacterium diphtheriae
Method: (§1) The chromogenic β-D-ribofuranoside substrate was added to Columbia agar at a substrate concentration of 300 mg/l. Ferric ammonium citrate was included at 500 mg/l. All ingredients were autoclaved at 116° C. for 20 minutes to ensure sterilisation. Agar plates were then prepared in 90 mm petri dishes. The substrate caused a yellow colouration of the agar.
(§2) For each strain tested, a bacterial suspension was prepared in sterile deionised water at an inoculum of approximately 1.5×10^8 colony forming units per ml. This was achieved using a densitometer. 1 μl of each bacterial suspension was then inoculated onto each plate using a multipoint inoculator. Strains were inoculated in parallel onto Columbia agar containing ferric ammonium citrate with no substrate (negative control).
(§3) After 18 hours incubation, strains were examined visually for the presence of colour. Any strains producing a black colouration on substrate containing media but not on the negative control plates were deemed to be hydrolysing the substrate.

Gram negative bacteria = assay: Hydrolysis on Columbia agar with ferric ammonium citrate, strain panel; type: cell-based; details: 120 Gram negative bacteria tested
Method: (§4) The ribofuranoside derivative of dihydroxyflavone was tested with 194 distinct strains of bacteria. The choice of bacteria included a wide range many of which are important pathogens or commensals commonly isolated from pathological samples.
as §1, §2, §3

Gram-positive bacteria = assay: as above; type: cell-based; details: Gram-positive bacteria tested
Method: as §4, §1, §2, §3

Aeromonas hydrophila = assay: Hydrolysis on Columbia agar with ferric ammonium citrate; type: cell-based; set-up: key to the marks not given beside the values; details: Aeromonas hydrophila NCTC 8049
Method: as §1, §2, §3

Hafnia alvei = assay: as above; type: cell-based; set-up: key to the marks not given beside the values
Method: as §1, §2, §3

E. coli 0157 = assay: as above; type: cell-based; set-up: key to the marks not given beside the values
Method: as §1, §2, §3

C. diversus = assay: as above; type: cell-based; set-up: key to the marks not given beside the values
Method: as §1, §2, §3

Vibrio metschnikovii = assay: as above; type: cell-based; set-up: key to the marks not given beside the values; details: Vibrio metschnikovii NCTC 8443
Method: as §1, §2, §3

Shigella boydii = assay: as above; type: cell-based; set-up: key to the marks not given beside the values
Method: as §1, §2, §3

Staphylococcus aureus = assay: as above; type: cell-based; set-up: key to the marks not given beside the values
Method: as §1, §2, §3

Salmonella typhi = assay: as above; type: cell-based; set-up: key to the marks not given beside the values; details: Salmonella typhi NCTC 8385
Method: as §1, §2, §3

Salmonella hadar = assay: as above; type: cell-based; set-up: key to the marks not given beside the values; details: Salmonella hadar SAX 57
Method: as §1, §2, §3

E. cloacae = assay: as above; type: cell-based; set-up: key to the marks not given beside the values
Method: as §1, §2, §3

C. freundii = assay: as above; type: cell-based; set-up: key to the marks not given beside the values
Method: as §1, §2, §3

[1] = system: Staphylococcus saprophyticus; assay: as above; type: cell-based; set-up: key to the marks not given beside the values
Method: as §1, §2, §3

Salmonella alachia = assay: as above; type: cell-based; set-up: key to the marks not given beside the values; details: Salmonella alachia SAX 60
Method: as §1, §2, §3

Serratia spp. = assay: as above; type: cell-based; set-up: key to the marks not given beside the values
Method: as §1, §2, §3

Salmonella panama = assay: as above; type: cell-based; set-up: key to the marks not given beside the values; details: Salmonella panama SAX 58
Method: as §1, §2, §3

Shigella dysenteriae = assay: as above; type: cell-based; set-up: key to the marks not given beside the values
Method: as §1, §2, §3

Salmonella oranienburg = assay: as above; type: cell-based; set-up: key to the marks not given beside the values; details: Salmonella oranienburg SAX 56
Method: as §1, §2, §3

Vibrio harveyi = assay: as above; type: cell-based; set-up: key to the marks not given beside the values; details: Vibrio harveyi NCTC 11346
Method: as §1, §2, §3

Salmonella motevideo = assay: as above; type: cell-based; set-up: key to the marks not given beside the values; details: Salmonella motevideo SAX 55
Method: as §1, §2, §3

Vibrio fluvialis = assay: as above; type: cell-based; set-up: key to the marks not given beside the values; details: Vibrio fluvialis NCTC 11327
Method: as §1, §2, §3

Salmonella typhimurium = assay: as above; type: cell-based; set-up: key to the marks not given beside the values; details: Salmonella typhimurium NCTC 74
Method: as §1, §2, §3

K. oxytoca = assay: as above; type: cell-based; set-up: key to the marks not given beside the values
Method: as §1, §2, §3

Aeromonas sobria = assay: as above; type: cell-based; set-up: key to the marks not given beside the values; details: Aeromonas sobria NCTC 11215
Method: as §1, §2, §3

O=c1cc(-c2ccc(OC3OC(CO)C(O)C3O)c(O)c2)oc2ccccc12 [DHF-riboside, 3′,4′-Dihydroxyflavone-4′-β-D-ribofuranoside sodium salt]
β-Ribofuranoside (hydrolysis) (C. diphtheriae; C. diphtheriae NCTC 3987): + | β-Ribofuranoside (hydrolysis) (C. diphtheriae; C. diphtheriae NCTC 10356): ++ | β-Ribofuranoside (hydrolysis) (C. diphtheriae; C. diphtheriae NCTC 11397): ++ | β-Ribofuranoside (hydrolysis) (C. diphtheriae; Corynebacterium diphtheria NEQAS): ++ | Activity with the substrate (C. diphtheriae; Corynebacterium diphtheriae): active | Share of strains that hydrolysed the substrate (Gram negative bacteria): 68.3% | Share of strains active with the substrate (Gram-positive bacteria): 30.8% | β-Riboside (hydrolysis) (Aeromonas hydrophila): ++ | β-Riboside (hydrolysis) (Hafnia alvei; Hafnia alvei HAL 2): ++ | β-Riboside (hydrolysis) (Hafnia alvei; Hafnia alvei NCTC 8105): ++ | β-Riboside (hydrolysis) (E. coli 0157; E. coli 0157 NCTC 12079): ++ | β-Riboside (hydrolysis) (E. coli 0157; E. coli 0157 NCTC 12080): ++ | β-Riboside (hydrolysis) (E. coli 0157; E. coli 0157 NCTC 12900): ++ | β-Riboside (hydrolysis) (E. coli 0157; E. coli 0157 NCTC 13125): ++ | β-Riboside (hydrolysis) (E. coli 0157; E. coli 0157 NCTC 13126): ++ | β-Riboside (hydrolysis) (E. coli 0157; E. coli 0157 NCTC 13127): ++ | β-Riboside (hydrolysis) (E. coli 0157; E. coli 0157 NCTC 13128): ++ | β-Riboside (hydrolysis) (C. diversus; C. diversus CDI 1): ++ | β-Riboside (hydrolysis) (C. diversus; C. diversus CDI 2): ++ | β-Riboside (hydrolysis) (Vibrio metschnikovii): ++ | β-Riboside (hydrolysis) (Shigella boydii; Shigella boydii NCTC 9327): ++ | β-Riboside (hydrolysis) (Shigella boydii; Shigella boydii NCTC 9732): ++ | β-Riboside (hydrolysis) (Shigella boydii; Shigella boydii NCTC 9850): ++ | β-Ribofuranoside (hydrolysis) (Staphylococcus aureus; Reference No. 1): ++ | β-Ribofuranoside (hydrolysis) (Staphylococcus aureus; Reference No. 2): ++ | β-Ribofuranoside (hydrolysis) (Staphylococcus aureus; Reference No. 3): ++ | β-Ribofuranoside (hydrolysis) (Staphylococcus aureus; Reference No. 4): ++ | β-Ribofuranoside (hydrolysis) (Staphylococcus aureus; Reference No. 5): ++ | β-Riboside (hydrolysis) (Salmonella typhi): ++ | β-Riboside (hydrolysis) (Salmonella hadar): ++ | β-Riboside (hydrolysis) (E. cloacae; E. cloacae ECL 1): ++ | β-Riboside (hydrolysis) (E. cloacae; E. cloacae ECL 2): ++ | β-Riboside (hydrolysis) (E. cloacae; E. cloacae ECL 3): ++ | β-Riboside (hydrolysis) (E. cloacae; E. cloacae ECL 4): ++ | β-Riboside (hydrolysis) (E. cloacae; E. cloacae NCTC 11936): ++ | β-Riboside (hydrolysis) (C. freundii; C. freundii CFR 1): ++ | β-Riboside (hydrolysis) (C. freundii; C. freundii CFR 2): ++ | β-Riboside (hydrolysis) (C. freundii; C. freundii CFR 3): ++ | β-Riboside (hydrolysis) (C. freundii; C. freundii CFR 4): ++ | β-Riboside (hydrolysis) (C. freundii; C. freundii NCTC 9750): ++ | β-Ribofuranoside (hydrolysis) ([1]; Reference No. 1): ++ | β-Ribofuranoside (hydrolysis) ([1]; Reference No. 2): ++ | β-Ribofuranoside (hydrolysis) ([1]; Reference No. 3): ++ | β-Ribofuranoside (hydrolysis) ([1]; Reference No. 4): ++ | β-Ribofuranoside (hydrolysis) ([1]; Reference No. 5): ++ | β-Riboside (hydrolysis) (Salmonella alachia): ++ | β-Riboside (hydrolysis) (Serratia spp.; Serratia spp. SEX 1): ++ | β-Riboside (hydrolysis) (Serratia spp.; Serratia spp. SEX 2): ++ | β-Riboside (hydrolysis) (Serratia spp.; Serratia spp. SEX 3): ++ | β-Riboside (hydrolysis) (Serratia spp.; Serratia spp. SEX 4): ++ | β-Riboside (hydrolysis) (Salmonella panama): ++ | β-Riboside (hydrolysis) (Shigella dysenteriae; Shigella dysenteriae (type 2) NCTC 9952): ++ | β-Riboside (hydrolysis) (Shigella dysenteriae; Shigella dysenteriae (type 3) NCTC 9720): ++ | β-Riboside (hydrolysis) (Shigella dysenteriae; Shigella dysenteriae (type 4) NCTC 9759): ++ | β-Riboside (hydrolysis) (Salmonella oranienburg): ++ | β-Riboside (hydrolysis) (Vibrio harveyi): ++ | β-Riboside (hydrolysis) (Salmonella motevideo): ++ | β-Riboside (hydrolysis) (Vibrio fluvialis): ++ | β-Riboside (hydrolysis) (Salmonella typhimurium): ++ | β-Riboside (hydrolysis) (K. oxytoca; K. oxytoca KOX 1): ++ | β-Riboside (hydrolysis) (K. oxytoca; K. oxytoca KOX 2): ++ | β-Riboside (hydrolysis) (Aeromonas sobria): ++
